Reference: PubChem BioAssay AID1963861 (Molecular Pharmacology Branch, DTP, NCI, 2024)

System: 885724-159-R-J1-PDC KRAS PDC multicell spheroid viability
Assay: Anticancer human tumor 885724-159-R-J1-PDC patient-derived pancreatic adenocarcinoma cell line growth inhibition [KRAS2]
Conditions: for IC50: curve of first compound; for viability, T/C: stronger effect = lower value
Excerpt: Multicellular complex tumor spheroid response to RAS pathway inhibitors in combination with a targeted agents in patient-derived cell lines with oncogenic KRAS variants from multiple cancer types
A high-throughput screen of multi-cell type tumor spheroids was designed to identify active combinations of targeted small molecules and KRAS pathway inhibitors. Complex spheroids include a stromal component modeled by human endothelial cells (HUVEC) and fibroblasts modeled by human mesenchymal stem cells (MSCs). The concentration ranges selected for each drug and investigational agent were based upon clinically achievable concentrations if the clinical Cmax of the agent was known.
Compounds. The drugs and investigational agents: BI-3406 (NSC825286), BAY-293 (NSC824723), batoprotafib (TNO155; NSC825523), sotorasib (AMG 510; NSC818433), MRTX1257 (NSC819558), elimusertib (BAY 1895344; NSC800525), molibresib (GSK525762; NSC774829), temuterkib (LY3214996; NSC803410), venetoclax (NSC766270), alisertib (NSC759677), olaparib (NSC753686), talazoparib (NSC767125), erdafitinib (NSC781556), ipatasertib (NSC767898), cabozantinib (NSC761068), nintedanib (NSC756659), abemaciclib (NSC768073), docetaxel (NSC628503), trametinib (NSC758246), and sapanisertib (NSC764658) were obtained from the National Cancer Institute (NCI) Developmental Therapeutics Program Chemical Repository. The FDA-approved anticancer drug set is available from the Developmental Therapeutics Program. […] The stock solutions were prepared in dimethyl sulfoxide (DMSO, Sigma-Aldrich, St. Louis, MO, cat. D2650) at 800-fold the tested concentration and stored at -70 degrees C prior to their use. All drugs and investigational agents were tested over a range starting from a high concentration at or near the clinical Cmax and decreasing in half-log increments. If the clinical Cmax for an agent had not been determined, the highest concentration tested was 10 microM.
Cell Culture. All cells were maintained in an incubator at 37 degrees C and 5% CO2 with 95% humidity. The PDC lines were cultured according to standard operating procedures established by the NCI PDMR (https://pdmr.cancer.gov/sops/default.htm). Briefly, all PDCs were thawed and cultured in Matrigel-coated flasks prepared with a working solution of 1X Ham's F-12 nutrient mix, without supplementation (Invitrogen, Waltham, MA, cat. 11765054), 100 U/mL penicillin-streptomycin (Invitrogen, cat. 15140122), and 2.5% Matrigel (Corning Inc., Corning, NY, cat. 354248) for the first three passages. All PDCs were cultured in complete DMEM/F-12 media containing advanced DMEM/F-12 (Invitrogen, cat. 12634028), 4.9% defined fetal bovine serum, heat inactivated (HyClone Laboratories Inc., Logan, UT, cat. SH30070.03HI), 389 ng/mL hydrocortisone (Sigma-Aldrich, cat. H4001), 9.7 ng/mL human EGF recombinant protein (Invitrogen, cat. PHG0313), 23.4 microg/mL adenine (Sigma-Aldrich, cat. A2786), 97.3 U/mL penicillin-streptomycin (Invitrogen, cat. 15140122), 1.9 mM L-glutamine (Invitrogen, cat. 25030081), and 9.7 microM Y-27632 dihydrochloride (Tocris Bioscience, Bristol, United Kingdom, cat. 1254). The PDCs were cultured in complete DMEM/F12 media without 9.7 microM Y-27632 dihydrochloride for at least two passages prior to the screen. The established cell line HOP-62 was cultured in RPMI 1640 medium, HEPES (Invitrogen, cat. 22400105) with 10% defined fetal bovine serum (HyClone Laboratories Inc., cat. SH30070.03) and 2 mM L-glutamine (Invitrogen, cat. 25030081). The pooled donor HUVEC were cultured in endothelial cell growth medium 2 (PromoCell, Heidelberg, Germany, cat. C-22011) and the hMSC were cultured in mesenchymal stem cell growth medium 2 (PromoCell, cat. C-28009). For all experiments, HUVEC and hMSC were used at passages </=5, while the malignant cell lines were used at passages </=15. […]

[1] = second compound 0.1 µM, first compound 0.00316 µM
[2] = second compound 0.1 µM, first compound 0.01 µM
[3] = second compound 0.1 µM, first compound 0.0316 µM
[4] = second compound 0.1 µM, first compound 0.1 µM
[5] = second compound 0.316 µM, first compound 0.00316 µM
[6] = second compound 0.316 µM, first compound 0.01 µM
[7] = second compound 0.316 µM, first compound 0.0316 µM
[8] = second compound 0.316 µM, first compound 0.1 µM
[9] = second compound 1 µM, first compound 0.00316 µM
[10] = second compound 1 µM, first compound 0.01 µM
[11] = second compound 1 µM, first compound 0.0316 µM
[12] = second compound 1 µM, first compound 0.1 µM
[13] = second compound 3.16 µM, first compound 0.00316 µM
[14] = second compound 3.16 µM, first compound 0.01 µM
[15] = second compound 3.16 µM, first compound 0.0316 µM
[16] = second compound 3.16 µM, first compound 0.1 µM
[17] = second compound 10 µM, first compound 0.00316 µM
[18] = second compound 10 µM, first compound 0.01 µM
[19] = second compound 10 µM, first compound 0.0316 µM
[20] = second compound 10 µM, first compound 0.1 µM
[21] = second compound 0.1 µM, first compound 0.316 µM
[22] = second compound 0.1 µM, first compound 1 µM
[23] = second compound 0.1 µM, first compound 3.16 µM
[24] = second compound 0.1 µM, first compound 10 µM
[25] = second compound 0.316 µM, first compound 0.316 µM
[26] = second compound 0.316 µM, first compound 1 µM
[27] = second compound 0.316 µM, first compound 3.16 µM
[28] = second compound 0.316 µM, first compound 10 µM
[29] = second compound 1 µM, first compound 0.316 µM
[30] = second compound 1 µM, first compound 1 µM
[31] = second compound 1 µM, first compound 3.16 µM
[32] = second compound 1 µM, first compound 10 µM
[33] = second compound 3.16 µM, first compound 0.316 µM
[34] = second compound 3.16 µM, first compound 1 µM
[35] = second compound 3.16 µM, first compound 3.16 µM
[36] = second compound 3.16 µM, first compound 10 µM
[37] = second compound 10 µM, first compound 0.316 µM
[38] = second compound 10 µM, first compound 1 µM
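Also: spheroids exposed to agents for 7 days before readout.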

| Compound | IC50 (second compound 0.1 µM) [nM] | IC50 (second compound 0.316 µM) [nM] | IC50 (second compound 1 µM) [nM] | IC50 (second compound 3.16 µM) [nM] | IC50 (second compound 10 µM) [nM] | viability, T/C [3] [%] | viability, T/C [4] [%] | viability, T/C [7] [%] | viability, T/C [8] [%] | viability, T/C [11] [%] | viability, T/C [12] [%] | viability, T/C [15] [%] | viability, T/C [16] [%] | viability, T/C [19] [%] | viability, T/C [20] [%] | viability, T/C [21] [%] | viability, T/C [22] [%] | viability, T/C [25] [%] | viability, T/C [26] [%] | viability, T/C [29] [%] | further results |
| --- | --- | --- | --- | --- | --- | --- | --- | --- | --- | --- | --- | --- | --- | --- | --- | --- | --- | --- | --- | --- | --- |
| CN(C)C/C=C/C(=O)Nc1cc2c(Nc3ccc(F)c(Cl)c3)ncnc2cc1O[C@H]1CCOC1 + CNCc1ccccc1-c1csc(C(C)Nc2nc(C)nc3cc(OC)c(OC)cc23)c1 | > 100 | > 100 | > 100 | 2.35 | < 0.316 | 77.9 | 66.7 | 74 | 63.4 | 70.3 | 67.5 | 71.9 | 38 | 0.22 | 0.25 | – | – | – | – | – | viability, T/C (second compound 0.1 µM, first compound 0.000316 µM): 104%; viability, T/C (second compound 0.1 µM, first compound 0.001 µM): 95.4%; viability, T/C [1]: 93.2%; viability, T/C [2]: 89.8%; viability, T/C (second compound 0.316 µM, first compound 0.000316 µM): 108%; viability, T/C (second compound 0.316 µM, first compound 0.001 µM): 107%; viability, T/C [5]: 86.6%; viability, T/C [6]: 81.7%; viability, T/C (second compound 1 µM, first compound 0.000316 µM): 109%; viability, T/C (second compound 1 µM, first compound 0.001 µM): 104%; viability, T/C [9]: 94.6%; viability, T/C [10]: 83.1%; viability, T/C (second compound 3.16 µM, first compound 0.000316 µM): 105%; viability, T/C (second compound 3.16 µM, first compound 0.001 µM): 123%; viability, T/C [13]: 0.97%; viability, T/C [14]: 0.27%; viability, T/C (second compound 10 µM, first compound 0.000316 µM): 0.22%; viability, T/C (second compound 10 µM, first compound 0.001 µM): 0.26%; viability, T/C [17]: 0.18%; viability, T/C [18]: 0.15% |
| CCNC(=O)CC1N=C(c2ccc(Cl)cc2)c2cc(OC)ccc2-n2c(C)nnc21 (stereo not given) + CC1OCC2(CCN(c3cnc(Sc4ccnc(N)c4Cl)c(N)n3)CC2)C1N | 1000 | 676 | 600 | 437 | 256 | 92.8 | 95 | 86.1 | 80 | 80.5 | 80 | 74 | 72.5 | 66.9 | 61.9 | 67.2 | 54.5 | 59.2 | 45.2 | 56.6 | viability, T/C [23]: 43.9%; viability, T/C [24]: 49.5%; viability, T/C [27]: 44%; viability, T/C [28]: 40.2%; viability, T/C [30]: 45%; viability, T/C [31]: 38.5%; viability, T/C [32]: 33.9%; viability, T/C [33]: 54.1%; viability, T/C [34]: 37.9%; viability, T/C [35]: 33.5%; viability, T/C [36]: 30.1%; viability, T/C [37]: 47.5%; viability, T/C [38]: 31.6%; viability, T/C (second compound 10 µM, first compound 3.16 µM): 26.4%; viability, T/C (second compound 10 µM, first compound 10 µM): 26.2% |
| CCN1CCN(Cc2ccc(Nc3ncc(F)c(-c4cc(F)c5nc(C)n(C(C)C)c5c4)n3)nc2)CC1 + CNCc1ccccc1-c1csc(C(C)Nc2nc(C)nc3cc(OC)c(OC)cc23)c1 | > 1000 | > 1000 | > 1000 | < 3.16 | < 3.16 | 92.2 | 86.8 | 78.2 | 83.4 | 76.6 | 78.3 | 0.79 | 4.1 | 0.2 | 0.19 | 87.2 | 96.9 | 94 | 90.9 | 74.8 | viability, T/C [1]: 110%; viability, T/C [2]: 100%; viability, T/C [5]: 106%; viability, T/C [6]: 94.8%; viability, T/C [9]: 95%; viability, T/C [10]: 96.3%; viability, T/C [30]: 71.2%; viability, T/C [13]: 0.67%; viability, T/C [14]: 1.81%; viability, T/C [33]: 0.68%; viability, T/C [34]: 0.56%; viability, T/C [17]: 0.19%; viability, T/C [18]: 0.32%; viability, T/C [37]: 0.19%; viability, T/C [38]: 0.28% |
| CC1OCC2(CCN(c3cnc(Sc4ccnc(N)c4Cl)c(N)n3)CC2)C1N (stereo not given) + C=CC(=O)N1CCN(c2nc(OCC3CCCN3C)nc3c2CCN(c2cccc4cccc(C)c24)C3)CC1CC#N | > 10000 | > 10000 | 9450 | < 31.6 | – | 103 | 89.8 | 94 | 84.7 | 79.4 | 73.4 | 46 | 40.2 | – | – | 71.6 | 69.6 | 70.5 | 67.9 | 64 | IC50 (second compound 0.0316 µM): > 10000 nM; viability, T/C (second compound 0.0316 µM, first compound 0.0316 µM): 97%; viability, T/C (second compound 0.0316 µM, first compound 0.1 µM): 85.7%; viability, T/C (second compound 0.0316 µM, first compound 0.316 µM): 76.6%; viability, T/C (second compound 0.0316 µM, first compound 1 µM): 68.4%; viability, T/C (second compound 0.0316 µM, first compound 3.16 µM): 69.7%; viability, T/C (second compound 0.0316 µM, first compound 10 µM): 56.6%; viability, T/C [23]: 63.4%; viability, T/C [24]: 61.6%; viability, T/C [27]: 60.2%; viability, T/C [28]: 57.3%; viability, T/C [30]: 56.2%; viability, T/C [31]: 56.8%; viability, T/C [32]: 48.6%; viability, T/C [33]: 36.1%; viability, T/C [34]: 33.6%; viability, T/C [35]: 35.1%; viability, T/C [36]: 27.1% |
